The test system of test [1] is Arachidonate Induced Bronchospasm. The test can be described thus: Pulmonary mechanics assay: inhibition of arachidonate induced bronchospasm in anesthetized guinea pigs. In kind it is in vivo, guinea pig (male Hartley). The conditions noted are these: Cavia porcellus, guinea pig, % inhibition of control; for inhibition in vivo at 15 mg/kg: dose 15 mg/kg IV; for inhibition in vivo at 50 mg/kg: dose 50 mg/kg ID; for inhibition in vivo at 100 mg/kg: dose 100 mg/kg ID; for inhibition in vivo at 10 mg/kg: dose 10 mg/kg ID; for inhibition in vivo at 25 mg/kg: dose 25 mg/kg ID. Here is the method: The bronchodilating activity of the compounds was tested in a pulmonary mechanics assay. Basically, male Hartley guinea pigs (~400-500 g) were anesthetized with urethane (2 g/kg, i.p.) and placed in a whole body plethysmograph. Cannulations of a jugular vein and carotid artery were performed for compound administration and monitoring blood presure, respectively. The trachea was cannulated for respiration at a constant volume via a miniature starling pump. A Validyne differential pressure transducer (±20 cm H2 O) sensed transpleural pressure via a 15 gauge needle inserted into the pleural cavity and a sidearm from the tracheal cannula. Tidal volume was sensed by another Validyne differential pressure transducer (±2 cm H2 O) from pressure changes inside the plethysmograph. An on-line Buxco pulmonary mechanics computer calculated air flow, dynamic lung compliance and lung resistance. The values were recorded on a print-out.
The guinea pigs were pretreated with succinyl choline (1.2 mg/kg, i.v.) to arrest spontaneous respiration. A control challenge of arachidonic acid (0.5-1.0 mg/kg, i.v.) was administered, and the animals were then dosed with the test compound by various routes. At least 10 minutes were allowed to expire between arachidonic acid challenges. A second challenge was given and compared to the control response. This comparison was indicative of cyclooxygenase inhibition. Indomethacin (10 mg/kg, i.v.) was administered immediately after the second challenge. A third challenge of a higher dose of arachidonic acid (5-10 mg/kg, i.v.) was given. This response was induced by SRS-A and compared to the responses elicited by a separate control group of animals. Activity was indicative of lipoxygenase inhibition. Propranolol (0.005 mg/kg, i.v.) may be given prior to the third challenge to enhance the response to SRS-A.
Bronchoconstriction induced by arachidonic acid with or without indomethacin was expressed as maximum percent change in dynamic lung compliance (Cdyn) and maximum percent increase in lung resistance (RL). Each guinea pig served as its own control for cyclooxygenase evaluation, while a treated group was compared to a control group for lipoxygenase evaluation. The results are shown in Table II and are expressed as the percent inhibition of control.

Another test addresses T1, 5-lipoxygenase (Rattus norvegicus, UniProt P12527).
T1 construct: The cell-free homogenate was prepared by sonication of the cells followed by centrifugation at 40,000 xg; endogenous in cells; host or cells: RBL-1 (rat basophilic leukemia) cells, 40,000 xg supernatant of the sonicated homogenate
T1 sequence (P12527 1-673): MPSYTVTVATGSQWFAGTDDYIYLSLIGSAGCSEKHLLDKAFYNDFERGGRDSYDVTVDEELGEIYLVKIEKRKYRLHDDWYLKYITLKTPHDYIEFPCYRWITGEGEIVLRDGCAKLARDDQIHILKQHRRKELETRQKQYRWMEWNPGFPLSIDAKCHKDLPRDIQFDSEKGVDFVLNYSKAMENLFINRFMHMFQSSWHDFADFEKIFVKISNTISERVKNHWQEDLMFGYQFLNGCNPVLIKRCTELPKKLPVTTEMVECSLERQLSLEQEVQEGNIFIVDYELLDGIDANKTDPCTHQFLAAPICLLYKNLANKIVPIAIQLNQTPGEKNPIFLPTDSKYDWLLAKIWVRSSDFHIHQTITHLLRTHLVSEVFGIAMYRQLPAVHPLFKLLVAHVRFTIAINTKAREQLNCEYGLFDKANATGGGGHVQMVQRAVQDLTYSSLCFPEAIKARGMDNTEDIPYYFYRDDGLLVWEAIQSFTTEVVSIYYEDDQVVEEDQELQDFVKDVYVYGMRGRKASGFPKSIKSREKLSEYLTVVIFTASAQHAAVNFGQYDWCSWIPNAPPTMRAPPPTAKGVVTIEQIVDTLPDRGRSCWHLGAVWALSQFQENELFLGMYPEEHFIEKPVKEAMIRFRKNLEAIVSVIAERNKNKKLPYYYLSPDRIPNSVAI
The test can be described thus: Inhibition of 5-lipoxygenase in a cell-free homogenate of RBL-1 cells (production of lipoxygenase products from 14C-arachidonic acid). In kind it is biochemical. The conditions noted are these: rat RBL-1 40,000 xg supernatant; for pIC50: 50% inhibition of lipoxygenase product generation. Here is the method: The inhibition of 5-lipoxygenase was tested in a cell-free homogenate by the procedure of Jakschik, B. et al., Biochem.Biophys.Res.Comm. 95, 103 (1980). Basically, rat basophilic leukemia cells (RBL-1 cells) were maintained in culture in a suitable medium, and were collected by centrifugation prior to assay. The cell-free homogenate was prepared by sonication of the cells followed by centrifugation at 40,000 xg. The CaCl2 dependent production of lipoxygenase products from ^14 C-arachidonic acid in the 40,000 xg supernatant was monitored in the presence of buffer (or other vehicle) or drug. Products were isolated by acidification and extraction, followed by thin layer chromatography. Radioactive areas corresponding to authentic lipoxygenase products were quantitated by liquid scintillation counting. Data was reported as the IC50, the concentration causing 50% inhibition of the generation of lipoxygenase products. The results are shown in Table II as the percent inhibition at 3 μM or the amount of compound necessary to cause 50% inhibition.

Where [2] appears, read: with indomethacin (10 mg/kg, i.v.), read-out: Bronchodilating Activity, % Inhibition of Arachidonate Induced Bronchospasm, with Indomethacin.
Where [3] appears, read: without indomethacin, read-out: Bronchodilating Activity, % Inhibition of Arachidonate Induced Bronchospasm, without Indomethacin.
Setting [4] is: iv, with indomethacin (10 mg/kg, i.v.), read-out: Bronchodilating Activity, % Inhibition of Arachidonate Induced Bronchospasm, with Indomethacin.

SMILES strings stand for the structures. pIC50: −log10 of the molar value. Read-outs that look alike come from different tables or passages of the source.

In general, inhibition refers to how much of the control response was suppressed. Read a high inhibition as strong suppression. By pIC50 is commonly meant −log10 of the IC50, conventionally taken in molar units. A high value points to a small IC50.

As for `COc1ccccc1/C=C\C(=O)N(C)O` [Example 9, Cis-2-methoxy-N--methylcinnamohydroxamic acid], the results for the inhibition in vivo at 15 mg/kg in test [1] (setting [2]) and in test [1] (setting [3]) were 36% and 29%, respectively. Besides, at 5-lipoxygenase, the inhibition at 3 µM was found to be 59%.

Regarding `CN(O)C(=O)/C=C/c1ccccc1` [Example 17, N--Methylcinnamohydroxamic acid], the results for the inhibition in vivo at 50 mg/kg in test [1] (setting [4]) and in test [1] (setting [3]) were 0% and -35%, respectively. Moreover, at 5-lipoxygenase, the inhibition at 3 µM was 50%.

In the case of `COc1ccc(OC)c(/C=C/C(=O)N(C)O)c1` [Example 2, 2,5-Dimethoxy-N-methylcinnamohydroxamic acid], the inhibition in vivo at 15 mg/kg in test [1] (setting [2]) stood at 49%; in test [1] (setting [3]), 65%. 3 µM produced 53% inhibition against 5-lipoxygenase.

`CN(O)C(=O)/C=C/c1c(Cl)cccc1Cl` [Example 15, 2,6-Dichloro-N--methylcinnamohydroxamic acid]: at 5-lipoxygenase, the inhibition at 3 µM was 24%.

In the case of `CN(O)C(=O)/C=C/c1cc(C(C)(C)C)c(O)c(C(C)(C)C)c1` [Example 27, 3,5-Di-t-butyl-4-hydroxy-N--methyl-cinnamo-hydroxamic acid], the inhibition in vivo at 15 mg/kg in test [1] (setting [2]) is 89%; in test [1] (setting [3]), 56%. The inhibition at 3 µM on 5-lipoxygenase was determined as 65%.

With `Cc1ccc(/C=C/C(=O)N(C)O)cc1` [Example 7, N,4-Dimethylcinnamohydroxamic acid], the inhibition in vivo at 100 mg/kg in test [1] (setting [4]) worked out at 0%; in test [1] (setting [3]) it was 59%. The inhibition in vivo at 15 mg/kg was determined as 89% in test [1] (setting [2]) and 96% in test [1] (setting [3]). On 5-lipoxygenase, this compound had a pIC50 of 6.26.

Turning to `COc1cc(/C=C/C(=O)N(C)O)cc(OC)c1` [Example 18, 3,5-Dimethoxy-N--methylcinnamohydroxamic acid], the values for the inhibition in vivo at 15 mg/kg in test [1] (setting [2]) and in test [1] (setting [3]) were 78% and 48%, respectively. On 5-lipoxygenase, this compound showed an inhibition at 3 µM of 100%.

Regarding `CN(O)C(=O)/C=C/c1ccc2c(c1)OCO2` [Example 12, 3,4-Methylenedioxy-N--methylcinnamohydroxamic acid], the inhibition in vivo at 15 mg/kg came to 58% in test [1] (setting [2]) and 15% in test [1] (setting [3]). Moreover, the inhibition at 3 µM at 5-lipoxygenase came out at 53%.

With `COc1cccc(OC)c1/C=C/C(=O)N(C)O` [Example 22, 2,6-Dimethoxy-N--methylcinnamohydroxamic acid], the inhibition at 3 µM at 5-lipoxygenase amounted to 41%.

As to `COc1ccccc1/C=C/C(=O)N(C)O` [Example 8, 2-Methoxy-N--methylcinnamohydroxamic acid], the inhibition in vivo at 50 mg/kg was 58% in test [1] (setting [4]) and -76% in test [1] (setting [3]). The inhibition in vivo at 15 mg/kg was 73% in test [1] (setting [2]) and 94% in test [1] (setting [3]). Besides, the inhibition at 3 µM against 5-lipoxygenase came to 66%.

Take `COc1ccc(/C=C/C(=O)NO)cc1OC` [Example 6, 3,4-Dimethoxycinnamohydroxamic acid]: the results for the inhibition in vivo at 10 mg/kg in test [1] (setting [4]) and in test [1] (setting [3]) were 61% and 77%, respectively. Moreover, testing at 3 µM at 5-lipoxygenase gave an inhibition of 17%.

In turn, `CN(O)C(=O)/C=C/c1ccc(Cl)cc1Cl` [Example 14, 2,4-Dichloro-N--methylcinnamohydroxamic acid] showed an inhibition at 3 µM against 5-lipoxygenase of 88%.

For the compound `CN(O)C(=O)/C=C/c1ccc(Cl)c([N+](=O)[O-])c1` [Example 23, 4-Chloro-3-nitro-N--methylcinnamohydroxamic acid], the inhibition at 3 µM on 5-lipoxygenase is 30%.

Consider `COc1ccc(/C=C/C(=O)N(C)O)c(OC)c1` [Example 20, 2,4-Dimethoxy-N--methylcinnamohydroxamic acid], for which the inhibition in vivo at 25 mg/kg in test [1] (setting [4]) and in test [1] (setting [3]) was 46% in each case. The compound further showed an inhibition at 3 µM against 5-lipoxygenase of 100%. In addition, the pIC50 against 5-lipoxygenase is 6.37.

Take `COc1cc(/C=C/C(=O)N(C)O)cc(OC)c1O` [Example 10, 3,5-Dimethoxy-4-hydroxy-N--methylcinnamohydroxamic acid]: 3 µM produced 17% inhibition against 5-lipoxygenase.

Consider `COc1ccc(/C=C/C(=O)N(C)O)cc1` [Example 25, 4-Methoxy-N--methylcinnamohydroxamic acid], for which the inhibition in vivo at 15 mg/kg stood at 29% in test [1] (setting [2]) and 0% in test [1] (setting [3]). This compound also showed a pIC50 at 5-lipoxygenase of 5.89.

As to `CN(O)C(=O)/C=C/c1ccc2c(c1)OCCO2` [Example 13, 3,4-(1,2-Ethylenedioxy)-N--methylcinnamohydroxamic acid], at 5-lipoxygenase, the inhibition at 3 µM was found to be 53%.

For the compound `COc1ccc(/C=C/C(=O)N(C)O)cc1OC` [Example 4, 3,4-Dimethoxy-N-methylcinnamohydroxamic acid], the inhibition in vivo at 15 mg/kg in test [1] (setting [2]) was 90%; in test [1] (setting [3]), 82%. This compound also registered an inhibition at 3 µM against 5-lipoxygenase of 89%. On 5-lipoxygenase, this compound showed a negative logarithm of the IC50 (pIC50) of 6.22.

As for `COc1cc(/C=C/C(=O)N(C)O)cc(OC)c1OC` [Example 3, 3,4,5-Trimethoxy-N-methycinnamohydroxamic acid], the inhibition in vivo at 15 mg/kg in test [1] (setting [2]) came to 89%; in test [1] (setting [3]) it was 0%. This compound also showed an inhibition at 3 µM at 5-lipoxygenase of 91%.

`CN(O)C(=O)/C=C/c1ccc(Cl)cc1` [Example 26, 4-Chloro-N--methylcinnamohydroxamic acid]: the results for the inhibition in vivo at 15 mg/kg in test [1] (setting [2]) and in test [1] (setting [3]) were 70% and 87%, respectively.

The compound `CN(O)C(=O)/C=C/c1ccc(F)cc1` [Example 1, 4-Fluoro-N-methylcinnamohydroxamic acid] displayed an inhibition at 3 µM against 5-lipoxygenase of 30%.

At 5-lipoxygenase, `CN(O)C(=O)/C=C/c1ccc(Cl)c(O)c1` [Example 5, 4-Chloro-3-hydroxy-N-methylcinnamohydroxamic acid] gave an inhibition at 3 µM of 35%.
